From publication PMC11923649, “Novel C-2 Aromatic Heterocycle-Substituted Triterpenoids Inhibit Hedgehog Signaling in GLI1 Overexpression Cancer Cells” (ACS Omega, 2025)

Key:
K562-TAX = experiment: MTS cytotoxicity assay, 72 h, K562-TAX; assay type: cell-based
CCRF-CEM = experiment: MTS cytotoxicity assay, 72 h, CCRF-CEM; assay type: cell-based; conditions: for IC50: Homo sapiens, CCRF-CEM, 72 h, MTS
Outline: (§1)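 Treatment ran 72 h at 37 °C under 5% CO2, starting the day after plating, across 50–0.0975 μmol/L (dilution factor 2). Metabolic conversion of MTS was read at 490 nm to obtain IC50.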

[1] = tested on: BJ human skin fibroblasts; experiment: MTS cytotoxicity assay, 72 h, BJ fibroblasts; assay type: cell-based; conditions: normal fibroblasts; for IC50: Homo sapiens, Skin fibroblast
Outline: as §1

U2OS = experiment: MTS cytotoxicity assay, 72 h, U2OS; assay type: cell-based; conditions: Homo sapiens
CEM-DNR = experiment: MTS cytotoxicity assay, 72 h, CEM-DNR; assay type: cell-based; conditions: Homo sapiens
HCT116 p53–/– = experiment: MTS cytotoxicity assay, 72 h, HCT116 p53–/–; assay type: cell-based; conditions: Homo sapiens, HCT-116, 72 h
Outline: as §1

DU-145 (prostate cancer) = experiment: MTS cytotoxicity assay, 72 h, DU-145; assay type: cell-based, human; conditions: Homo sapiens, DU-145, 72 h
Outline: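 MTS read-out (A490 after 1–4 h with MTS/PMS) following 72 h continuous compound treatment. Concentrations spanned 50–0.0975 μmol/L in twofold steps; IC50 values calculated from the curves.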

MRC-5 lung fibroblasts = experiment: MTS cytotoxicity assay, 72 h, MRC-5 fibroblasts; assay type: cell-based, human; conditions: normal fibroblasts; for IC50: Homo sapiens, MRC5, 72 h
Outline: as §1

[2] = tested on: nine cancer and two normal fibroblast derived cell lines; experiment: MTS cytotoxicity assay, whole panel of 11 cell lines; assay type: cell-based; conditions: 72 h, statement for whole panel
Procedure: Based on the preliminary results and tests of a larger library of known triterpenoids, a small set of 2-substituted lupane and 18α-oleanane derivatives was designed and synthesized. As the first step, the cytotoxic activity of the synthesized derivatives was assessed using an MTS assay following 72 h of treatment (Table 1). Selected cell lines A549 (lung adenocarcinoma) and DU-145 (prostate cancer) are both dependent on Hh signaling. In addition, K562 (chronic myelogenous leukemia) was included as a cell line sensitive to Hh inhibitors[32] and a type of hematological malignancy with active Hh signaling.[33] MRC-5 lung fibroblasts and BJ human skin fibroblasts cell lines were used to evaluate the toxicity against nontumor cells. Compounds were also tested using the standard panel of other cancer cell lines, as described in our earlier work (Table 1).[27]
The human prostate tumor-derived cell line DU145 was obtained from ATCC (American Type Culture Collection) and cultured in RPMI 1640 (Roswell Park Memorial Institute) medium supplemented with 10% (v/v) fetal bovine serum (FBS). Human prostate tumor-derived LNCaP cells were obtained from ATCC and cultured in RPMI 1640 medium supplemented with 10% FBS. […] Finally, the absorbance at 490 nm was measured using an EnVision multifunctional modular reader (PerkinElmer). The IC50 value was determined using Dotmatics software.

[3] = tested on: A549 (lung adenocarcinoma); experiment: MTS cytotoxicity assay, 72 h, A549; assay type: cell-based; conditions: Homo sapiens, A549, 72 h
Outline: as §1

[4] = tested on: K562 (chronic myelogenous leukemia); experiment: MTS cytotoxicity assay, 72 h, K562; assay type: cell-based; conditions: Homo sapiens
Outline: as §1

HCT 116 = experiment: MTS cytotoxicity assay, 72 h, HCT 116; assay type: cell-based; conditions: Homo sapiens, HCT-116, 72 h
Outline: as §1

[5] = IC50 of CCRF-CEM line vs average of both fibroblasts (BJ and MRC-5), Table 1
[6] = CCRF-CEM vs average of BJ and MRC-5, full Table S1

| Structure (SMILES) | IC50 (K562-TAX; Table 1) [µM] | IC50 (K562-TAX; full Table S1) [µM] | IC50 (CCRF-CEM; Table 1) [µM] | SI (selectivity index) (CCRF-CEM; [5]) | IC50 ([1]; Table 1) [µM] | IC50 ([1]; full Table S1) [µM] | IC50 (U2OS; Table 1) [µM] | IC50 (U2OS; full Table S1) [µM] | IC50 (CEM-DNR; Table 1) [µM] | IC50 (CEM-DNR; full Table S1) [µM] | IC50 (HCT116 p53–/–; Table 1) [µM] | IC50 (HCT116 p53–/–; full Table S1) [µM] | IC50 (DU-145 (prostate cancer); Table 1) [µM] | IC50 (DU-145 (prostate cancer); full Table S1) [µM] | IC50 (MRC-5 lung fibroblasts; Table 1) [µM] | IC50 (MRC-5 lung fibroblasts; full Table S1) [µM] | IC50 ([3]; Table 1) [µM] | IC50 ([3]; full Table S1) [µM] | IC50 ([4]; Table 1) [µM] | IC50 (HCT 116; full Table S1) [µM] | also measured |
| --- | --- | --- | --- | --- | --- | --- | --- | --- | --- | --- | --- | --- | --- | --- | --- | --- | --- | --- | --- | --- | --- |
| CC1(C)C(=O)C(c2ccc3cn[nH]c3c2)=C[C@@]2(C)C1CC[C@]1(C)C2CCC2C3[C@H]4OC[C@@]3(CCC4(C)C)CC[C@]21C (stereo partly drawn) [Compound 4n, 2-(Indazol-6-yl)-19β,28-epoxyolean-1-en-3-one] | 16 | 16.8 | 18 | 2.1 | 42 | 42.2 | 25 | 24.5 | 24 | 24.1 | 31 | 30.6 | 24 | 23.9 | 33 | 33.2 | 30 | 29.5 | 23 | 30.6 | Cytotoxic activity (IC50) on these 11 cell lines [2]: weak cytotoxicity; IC50 ([4]; full Table S1): 22.5 µM; IC50 (HCT 116; Table 1): 31 µM |
| C=C(C)[C@@H]1CC[C@]2(C(=O)OCc3ccccc3)CC[C@]3(C)C(CCC4[C@@]5(C)C=C(c6ccncc6)C(=O)C(C)(C)C5CC[C@]43C)C12 (stereo partly shown) [Compound 10h, Benzyl 2-(4-Pyridinyl)-3-oxolupa-1,20(29)-dien-28-oate] |  | > 50 |  |  |  | > 50 |  | > 50 |  | > 50 |  | > 50 |  | > 50 |  | > 50 |  | > 50 |  | > 50 | SI (selectivity index) (CCRF-CEM; [6]): > 1.0; IC50 (CCRF-CEM; full Table S1): > 50 µM; IC50 ([4]; full Table S1): > 50 µM |
| C=C(C)[C@@H]1CC[C@]2(C(=O)OCc3ccccc3)CC[C@]3(C)C(CCC4[C@@]5(C)C=C(c6cccs6)C(=O)C(C)(C)C5CC[C@]43C)C12 (stereo partly shown) [Compound 10c, Benzyl 2-(2-Thiophenyl)-3-oxolupa-1,20(29)-dien-28-oate] |  | > 50 |  |  |  | > 50 |  | > 50 |  | > 50 |  | > 50 |  | > 50 |  | > 50 |  | > 50 |  | > 50 | SI (selectivity index) (CCRF-CEM; [6]): > 1.0; IC50 (CCRF-CEM; full Table S1): > 50 µM; IC50 ([4]; full Table S1): > 50 µM |
| C=C(C)[C@@H]1CC[C@]2(C(=O)O)CC[C@]3(C)C(CCC4[C@@]5(C)C=C(c6cncnc6)C(=O)C(C)(C)C5CC[C@]43C)C12 (stereo partly shown) [Compound 11i, 2-(Pyrimidin-5-yl)-3-oxolupa-1,20(29)-dien-28-oic acid] | 25 |  | 19.7 | >2.5 | > 50 |  | > 50 |  | 42 | 41.8 | 41 |  | 18 | 17.5 | > 50 |  | > 50 |  | > 50 | 34.6 | IC50 (HCT 116; Table 1): 35 µM |
| CC1(C)C(=O)C(c2cc3ccccc3s2)=C[C@@]2(C)C1CC[C@]1(C)C2CCC2C3[C@H]4OC[C@@]3(CCC4(C)C)CC[C@]21C (stereo partly drawn) [Compound 4k, 2-(Benzo[b]thien-2-yl)-19β,28-epoxyolean-1-en-3-one] |  | > 50 |  |  |  | > 50 |  | > 50 |  | > 50 |  | > 50 |  | > 50 |  | > 50 |  | > 50 |  | > 50 | SI (selectivity index) (CCRF-CEM; [6]): > 1.0; IC50 (CCRF-CEM; full Table S1): > 50 µM; IC50 ([4]; full Table S1): > 50 µM |
| C=C(C)[C@@H]1CC[C@]2(C(=O)O)CC[C@]3(C)C(CCC4[C@@]5(C)C=C(c6ccncc6)C(=O)C(C)(C)C5CC[C@]43C)C12 (stereo partly shown) [Compound 11h, 2-(Pyridin-4-yl)-3-oxolupa-1,20(29)-dien-28-oic acid] | 11 | 10.8 | 5.2 | >9.5 | > 50 |  | 28 | 28.4 | 17 |  | 31 | 30.6 | 11 | 10.8 | > 50 |  | 21 | 21.3 | > 50 | 25.1 | IC50 BJ ([1]; Table 1): below the detection limit; IC50 MRC-5 (MRC-5 lung fibroblasts; Table 1): below the detection limit; IC50 (HCT 116; Table 1): 25 µM |
| CC1(C)C(=O)C(c2ccncc2)=C[C@@]2(C)C1CC[C@]1(C)C2CCC2C3[C@H]4OC[C@@]3(CCC4(C)C)CC[C@]21C (stereo partly drawn) [Compound 4h, 2-(Pyridine-4-yl)-19β,28-epoxyolean-1-en-3-one] | 18 | 18.1 | 19 | >2.7 | > 50 |  | > 50 |  | 19 |  | > 50 |  | 22 | 22.1 | > 50 |  | > 50 |  | > 50 |  | IC50 (CCRF-CEM; full Table S1): 18.7 µM; IC50 (HCT 116; Table 1): > 50 µM |
